Data reported in ChEMBL document CHEMBL5244205, “Discovery of tricyclic dipyrrolopyridine derivatives as novel JAK inhibitors” (Bioorg Med Chem, 2017).

What was measured:
[1] = Clearance in Sprague-Dawley rat at 1 mg/kg, iv measured up to 24 hrs by LC-MS/MS analysis; type: ADME, organism-based; conditions: in vivo
[2] = AUC (0 to 24 hrs) in Sprague-Dawley rat at 1 mg/kg, po measured up to 24 hrs by LC-MS/MS analysis; type: ADME, organism-based; parameters: dose 1 mg/kg, time < 24 hrs, route po; conditions: in vivo
[3] = biological target: Tyrosine-protein kinase CSK (Homo sapiens, UniProt P41240); test: Inhibition of CSK (unknown origin)
Sequence of Tyrosine-protein kinase CSK (P41240 whole entry): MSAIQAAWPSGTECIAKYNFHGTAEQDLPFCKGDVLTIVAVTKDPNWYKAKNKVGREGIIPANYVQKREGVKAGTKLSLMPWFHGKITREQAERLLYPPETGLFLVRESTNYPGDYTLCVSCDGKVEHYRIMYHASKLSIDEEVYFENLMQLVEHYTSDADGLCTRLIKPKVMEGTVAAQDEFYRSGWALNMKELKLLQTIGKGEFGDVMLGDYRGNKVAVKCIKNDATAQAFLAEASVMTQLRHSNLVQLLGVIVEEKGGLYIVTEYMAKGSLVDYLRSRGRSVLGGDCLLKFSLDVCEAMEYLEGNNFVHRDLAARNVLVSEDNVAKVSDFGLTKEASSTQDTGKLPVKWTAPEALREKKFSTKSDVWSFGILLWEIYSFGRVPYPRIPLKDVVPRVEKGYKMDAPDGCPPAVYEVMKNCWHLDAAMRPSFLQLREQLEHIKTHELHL

[4] = Half life in Sprague-Dawley rat at 1 mg/kg, po measured up to 24 hrs by LC-MS/MS analysis; type: ADME, organism-based; conditions: in vivo
[5] = biological target: Inhibitor of nuclear factor kappa-B kinase subunit beta (Homo sapiens, UniProt O14920); test: Inhibition of IKKB (unknown origin)
[6] = biological target: Tyrosine-protein kinase ZAP-70 (Homo sapiens, UniProt P43403); test: Inhibition of ZAP70 (unknown origin)
[7] = biological target: Mitogen-activated protein kinase kinase kinase 1 (Homo sapiens, UniProt Q13233); test: Inhibition of MAP3K1 (unknown origin)
Sequence of Mitogen-activated protein kinase kinase kinase 1 (Q13233 whole entry): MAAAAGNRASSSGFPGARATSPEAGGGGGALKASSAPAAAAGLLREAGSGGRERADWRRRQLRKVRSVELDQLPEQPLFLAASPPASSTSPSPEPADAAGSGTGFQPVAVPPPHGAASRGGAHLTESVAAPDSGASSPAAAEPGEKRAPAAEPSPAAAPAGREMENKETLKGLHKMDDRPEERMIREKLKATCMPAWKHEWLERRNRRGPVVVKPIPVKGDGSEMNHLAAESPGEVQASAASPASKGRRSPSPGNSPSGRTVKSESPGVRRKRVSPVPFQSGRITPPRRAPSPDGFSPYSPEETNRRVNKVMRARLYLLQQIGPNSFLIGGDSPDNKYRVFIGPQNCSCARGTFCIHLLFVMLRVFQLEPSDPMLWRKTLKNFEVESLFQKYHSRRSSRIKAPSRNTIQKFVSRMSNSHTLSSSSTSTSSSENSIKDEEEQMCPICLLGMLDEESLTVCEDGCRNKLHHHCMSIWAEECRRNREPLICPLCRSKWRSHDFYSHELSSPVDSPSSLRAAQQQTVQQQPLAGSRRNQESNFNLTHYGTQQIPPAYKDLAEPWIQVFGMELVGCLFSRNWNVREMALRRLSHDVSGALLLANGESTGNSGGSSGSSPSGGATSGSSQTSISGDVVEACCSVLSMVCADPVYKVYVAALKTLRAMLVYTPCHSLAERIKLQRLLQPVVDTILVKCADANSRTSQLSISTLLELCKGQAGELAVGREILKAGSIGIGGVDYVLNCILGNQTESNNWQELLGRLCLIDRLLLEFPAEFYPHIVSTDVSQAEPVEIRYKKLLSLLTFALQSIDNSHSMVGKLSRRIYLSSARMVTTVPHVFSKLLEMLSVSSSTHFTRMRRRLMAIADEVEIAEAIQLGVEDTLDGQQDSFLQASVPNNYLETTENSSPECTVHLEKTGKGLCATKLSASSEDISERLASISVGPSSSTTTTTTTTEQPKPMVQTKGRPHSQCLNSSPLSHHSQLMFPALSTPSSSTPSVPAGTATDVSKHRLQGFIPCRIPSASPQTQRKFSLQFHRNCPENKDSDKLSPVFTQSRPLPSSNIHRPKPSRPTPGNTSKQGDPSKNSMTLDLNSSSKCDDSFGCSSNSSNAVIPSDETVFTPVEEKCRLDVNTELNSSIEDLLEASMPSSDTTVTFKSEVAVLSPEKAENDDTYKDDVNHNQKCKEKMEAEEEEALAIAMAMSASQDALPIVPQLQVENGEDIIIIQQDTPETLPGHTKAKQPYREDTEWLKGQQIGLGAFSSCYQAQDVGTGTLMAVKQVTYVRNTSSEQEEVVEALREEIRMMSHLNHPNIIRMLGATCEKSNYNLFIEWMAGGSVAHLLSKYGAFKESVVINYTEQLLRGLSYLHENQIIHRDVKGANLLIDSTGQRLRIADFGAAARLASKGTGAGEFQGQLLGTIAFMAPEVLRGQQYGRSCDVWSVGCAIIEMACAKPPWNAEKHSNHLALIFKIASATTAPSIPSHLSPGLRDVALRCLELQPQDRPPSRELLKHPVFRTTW

[8] = biological target: Mitogen-activated protein kinase 11 (Homo sapiens, UniProt Q15759); test: Inhibition of P38beta (unknown origin)
[9] = Inhibition of SYK (unknown origin); parameters: species or system Homo sapiens
[10] = biological target: Focal adhesion kinase 1 (Homo sapiens, UniProt Q05397); test: Inhibition of FAK (unknown origin)
Sequence of Focal adhesion kinase 1 (Q05397 whole entry): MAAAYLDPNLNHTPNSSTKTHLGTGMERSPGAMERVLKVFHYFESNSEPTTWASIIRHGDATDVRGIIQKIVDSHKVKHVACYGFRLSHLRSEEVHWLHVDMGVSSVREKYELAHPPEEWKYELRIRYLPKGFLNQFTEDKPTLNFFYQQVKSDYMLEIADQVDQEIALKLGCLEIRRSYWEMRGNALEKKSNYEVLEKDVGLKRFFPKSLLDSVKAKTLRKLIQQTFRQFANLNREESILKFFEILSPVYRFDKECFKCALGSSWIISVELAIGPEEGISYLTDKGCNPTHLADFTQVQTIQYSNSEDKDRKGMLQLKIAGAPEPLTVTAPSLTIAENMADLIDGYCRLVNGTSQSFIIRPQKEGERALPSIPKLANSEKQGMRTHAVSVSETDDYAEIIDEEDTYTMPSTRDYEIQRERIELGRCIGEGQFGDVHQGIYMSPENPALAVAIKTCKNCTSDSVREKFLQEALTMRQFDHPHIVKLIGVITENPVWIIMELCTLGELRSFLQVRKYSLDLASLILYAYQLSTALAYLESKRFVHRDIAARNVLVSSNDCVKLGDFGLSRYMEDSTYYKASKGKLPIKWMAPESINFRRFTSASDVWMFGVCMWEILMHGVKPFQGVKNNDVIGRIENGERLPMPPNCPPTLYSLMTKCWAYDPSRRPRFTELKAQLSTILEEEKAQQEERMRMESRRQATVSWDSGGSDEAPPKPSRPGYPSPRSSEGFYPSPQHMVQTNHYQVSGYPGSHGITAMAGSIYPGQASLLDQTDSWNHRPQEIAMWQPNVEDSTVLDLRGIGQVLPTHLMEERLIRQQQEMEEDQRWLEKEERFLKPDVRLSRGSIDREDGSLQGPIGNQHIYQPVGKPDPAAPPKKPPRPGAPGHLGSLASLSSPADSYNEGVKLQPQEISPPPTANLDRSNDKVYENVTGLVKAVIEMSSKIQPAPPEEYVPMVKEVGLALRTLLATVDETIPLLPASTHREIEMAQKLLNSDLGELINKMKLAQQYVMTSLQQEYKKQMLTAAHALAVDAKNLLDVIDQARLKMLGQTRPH

[11] = biological target: RAF proto-oncogene serine/threonine-protein kinase (Homo sapiens, UniProt P04049); test: Inhibition of RAF1 (unknown origin)
[12] = biological target: MAP kinase-activated protein kinase 2 (Homo sapiens, UniProt P49137); test: Inhibition of MAPKAPK2 (unknown origin)
Sequence of MAP kinase-activated protein kinase 2 (P49137 whole entry): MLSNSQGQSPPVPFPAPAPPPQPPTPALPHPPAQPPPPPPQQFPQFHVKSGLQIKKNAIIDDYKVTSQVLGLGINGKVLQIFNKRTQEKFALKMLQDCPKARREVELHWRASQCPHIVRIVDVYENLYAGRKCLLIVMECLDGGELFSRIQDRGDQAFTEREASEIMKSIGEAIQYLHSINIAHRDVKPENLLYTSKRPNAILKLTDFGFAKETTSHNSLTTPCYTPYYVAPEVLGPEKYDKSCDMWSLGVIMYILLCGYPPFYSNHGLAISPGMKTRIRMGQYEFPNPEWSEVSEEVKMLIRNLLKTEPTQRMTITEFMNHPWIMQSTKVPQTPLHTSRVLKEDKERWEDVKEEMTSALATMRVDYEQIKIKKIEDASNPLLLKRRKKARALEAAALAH

[13] = pampa, pH 6.5, 2 h
Description: Permeability of the compound in pH 6.5 incubated for 2 hrs by PAMPA based HPLC analysis

[14] = Half life in Sprague-Dawley rat at 1 mg/kg, iv measured up to 24 hrs by LC-MS/MS analysis; type: ADME, organism-based; conditions: in vivo
[15] = Volume of distribution in Sprague-Dawley rat at 1 mg/kg, iv measured up to 24 hrs by LC-MS/MS analysis; type: ADME, organism-based; conditions: in vivo
[16] = biological target: Casein kinase I isoform delta (Homo sapiens, UniProt P48730); test: Inhibition of CHKdelta (unknown origin)
[17] = Tmax in Sprague-Dawley rat at 1 mg/kg, po measured up to 24 hrs by LC-MS/MS analysis; type: ADME, organism-based; conditions: in vivo
[18] = Oral availability in Sprague-Dawley rat at 1 mg/kg measured up to 24 hrs by LC-MS/MS analysis; type: ADME, organism-based; conditions: in vivo
[19] = AUC (0 to 24 hrs) in Sprague-Dawley rat at 1 mg/kg, iv measured up to 24 hrs by LC-MS/MS analysis; type: ADME, organism-based; parameters: dose 1 mg/kg, time < 24 hrs, route iv; conditions: in vivo
[20] = Cmax in Sprague-Dawley rat at 1 mg/kg, po measured up to 24 hrs by LC-MS/MS analysis; type: ADME, organism-based; parameters: time < 24 hrs, dose 1 mg/kg, route po; conditions: in vivo
[21] = biological target: Cytochrome P450 3A4 (Homo sapiens, UniProt P08684); conditions: microsomes, 20 min, 5 µM
Sequence of Cytochrome P450 3A4 (P08684 whole entry): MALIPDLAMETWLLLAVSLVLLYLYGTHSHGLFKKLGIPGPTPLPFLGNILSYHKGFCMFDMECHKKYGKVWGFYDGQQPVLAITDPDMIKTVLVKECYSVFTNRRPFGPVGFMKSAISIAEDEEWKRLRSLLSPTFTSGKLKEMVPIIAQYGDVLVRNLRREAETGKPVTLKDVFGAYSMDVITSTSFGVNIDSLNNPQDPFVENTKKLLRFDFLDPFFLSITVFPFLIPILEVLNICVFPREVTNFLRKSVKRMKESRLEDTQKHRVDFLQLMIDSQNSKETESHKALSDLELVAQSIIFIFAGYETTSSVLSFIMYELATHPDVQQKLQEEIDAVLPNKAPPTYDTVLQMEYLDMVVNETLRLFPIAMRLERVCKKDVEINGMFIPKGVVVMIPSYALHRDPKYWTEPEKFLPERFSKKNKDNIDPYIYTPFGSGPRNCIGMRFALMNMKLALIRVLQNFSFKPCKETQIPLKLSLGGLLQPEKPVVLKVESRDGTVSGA

[22] = biological target: Tyrosine-protein kinase ITK/TSK (Homo sapiens, UniProt Q08881); test: Inhibition of ITK (unknown origin)
[23] = biological target: Ephrin type-A receptor 2 (Homo sapiens, UniProt P29317); test: Inhibition of EphA2 (unknown origin)
[24] = biological target: Tyrosine-protein kinase BTK (Homo sapiens, UniProt Q06187); test: Inhibition of BTK (unknown origin)
[25] = biological target: Tyrosine-protein kinase ABL1 (Homo sapiens, UniProt P00519); test: Inhibition of ABL (unknown origin)
[26] = biological target: Bone morphogenetic protein receptor type-1A (Homo sapiens, UniProt P36894); test: Inhibition of BMPR1A (unknown origin)
[27] = biological target: Angiopoietin-1 receptor (Homo sapiens, UniProt Q02763); test: Inhibition of TIE2 (unknown origin)
Sequence of Angiopoietin-1 receptor (Q02763 whole entry): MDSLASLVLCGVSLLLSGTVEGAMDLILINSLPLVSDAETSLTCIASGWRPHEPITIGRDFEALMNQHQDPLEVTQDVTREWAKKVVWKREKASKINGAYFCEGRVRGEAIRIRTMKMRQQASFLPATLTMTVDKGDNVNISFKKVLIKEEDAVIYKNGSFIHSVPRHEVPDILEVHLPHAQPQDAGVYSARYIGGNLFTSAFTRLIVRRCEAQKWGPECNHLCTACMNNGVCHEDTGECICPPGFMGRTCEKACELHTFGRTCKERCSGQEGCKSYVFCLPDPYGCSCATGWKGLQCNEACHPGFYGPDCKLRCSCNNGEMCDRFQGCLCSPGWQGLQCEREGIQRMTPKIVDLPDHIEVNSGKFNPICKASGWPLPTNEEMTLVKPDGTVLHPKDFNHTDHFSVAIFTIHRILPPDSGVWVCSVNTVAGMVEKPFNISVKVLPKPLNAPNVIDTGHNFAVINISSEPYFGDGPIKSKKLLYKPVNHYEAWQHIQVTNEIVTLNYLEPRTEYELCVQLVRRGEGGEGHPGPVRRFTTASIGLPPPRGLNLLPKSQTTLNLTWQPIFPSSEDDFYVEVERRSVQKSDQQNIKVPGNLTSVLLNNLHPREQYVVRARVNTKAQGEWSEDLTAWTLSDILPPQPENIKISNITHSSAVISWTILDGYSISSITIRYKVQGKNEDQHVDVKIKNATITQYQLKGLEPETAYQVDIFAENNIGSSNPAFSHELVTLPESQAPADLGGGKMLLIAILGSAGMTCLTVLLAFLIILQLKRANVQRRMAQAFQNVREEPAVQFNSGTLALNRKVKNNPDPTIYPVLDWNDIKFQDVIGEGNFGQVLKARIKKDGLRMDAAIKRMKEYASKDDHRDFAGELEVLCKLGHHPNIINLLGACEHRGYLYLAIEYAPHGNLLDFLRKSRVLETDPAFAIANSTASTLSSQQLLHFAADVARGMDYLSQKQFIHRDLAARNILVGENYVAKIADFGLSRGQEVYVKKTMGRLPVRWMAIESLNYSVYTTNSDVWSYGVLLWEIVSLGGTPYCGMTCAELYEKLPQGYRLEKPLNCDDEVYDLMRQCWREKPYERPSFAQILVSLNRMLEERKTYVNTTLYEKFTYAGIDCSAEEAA

[28] = biological target: Epidermal growth factor receptor (Homo sapiens, UniProt P00533); test: Inhibition of EGFR (unknown origin)
[29] = biological target: Insulin-like growth factor 1 receptor (Homo sapiens, UniProt P08069); test: Inhibition of IGF1R (unknown origin)

## C[C@@H]1CCN(C(=O)CC#N)C[C@@H]1n1ccc2cnc3[nH]cc(C#N)c3c21
[1]
  clearance: 20.2 mL/min/kg
[2]
  AUC(0-t) at 24 h: 916 ng·h/mL
[3]
  IC50: > 1000 nM
[4]
  half-life: 3.99 h
[5]
  IC50: > 1000 nM
[6]
  IC50: > 1000 nM
[7]
  IC50: > 1000 nM
[8]
  IC50: > 1000 nM
[9]
  IC50: > 1000 nM
[10]
  IC50: > 1000 nM
[11]
  IC50: > 1000 nM
[12]
  IC50: > 1000 nM
[13]
  permeability: 14 10^-6 cm/s
[14]
  half-life: 7.86 h
[15]
  Vd: 0.97 L/kg
[16]
  IC50: > 1000 nM
[17]
  Tmax: 0.33 h
[18]
  bioavailability: 82.4%
[19]
  AUC(0-t) at 24 h: 1110 ng·h/mL
[20]
  Cmax: 178 ng/mL
[21]
  TDI: 93%
[22]
  IC50: > 1000 nM
[23]
  IC50: > 1000 nM
[24]
  IC50: > 1000 nM
[25]
  IC50: > 1000 nM
[26]
  IC50: > 1000 nM
[27]
  IC50: > 1000 nM
[28]
  IC50: > 1000 nM
[29]
  IC50: > 1000 nM
